Experimental data reported in patent publication US10093650B2, “Tetrazolone-substituted dihydropyridinone MGAT2 inhibitors” (BRISTOL-MYERS SQUIBB COMPANY, priority 2014, dated 2018).

biological target: human MGAT-2 (Homo sapiens (Human), UniProt Q3SYC2); experiment: MGAT LCMS Assay (human MGAT2); assay type: biochemical; conditions: human MGAT-2 membranes expressed in Sf9 cells; 100 μM 2-oleoylglycerol, 15 μM oleoyl-coenzyme A; LC/MS readout; read-out: h-MGAT LCMS IC50
Protocol: The MGAT enzyme reactions were performed in Corning FALCON® 96-well polypropylene plates, in a total volume of 60 μL of 50 mM potassium phosphate buffer pH 7.4, containing a final concentration of 100 μM 2-oleoylglycerol, 15 μM oleoyl-coenzyme A and […] human or mouse MGAT-2 or […] rat recombinant MGAT-2 membranes expressed in Sf9 cells. Assay plates were run through a fully automated robotics system and shaken for 5 seconds every minute for a total 10 minutes. The reactions were then quenched with 120 μL of ice cold methanol containing 1 μg/mL 1,2-distearoyl-rac-glycerol as the internal standard. Plates were shaken for 2 minutes and spun down to remove protein precipitation. After the spin, samples were transferred to LC/MS compatible PCR plates. For LC/MS analysis, a ThermoFisher Surveyor pump, utilizing a Waters SYMMETRY® C8, 50×2.1 mm column, was used for the chromatography of enzyme products. The buffer system consists of 0.1% formic acid in water with a mobile phase consisting 0.1% formic acid in methanol. The shallow gradient is 90-100% mobile phase in 0.2 min with a total run time of 2.3 min. The first 0.5 minutes of each injection was diverted to waste to eliminate the presence of Phosphate buffer in the enzymatic reaction. The column was run at 0.6 mL/min and a temperature of 65° C. Mass spectrometry analysis of the samples was performed on a ThermoFisher Quantum Triple quad utilizing APCI (+) as the mode of ionization. Data was acquired in Single Ion Monitoring (SIM) mode analyzing Diolein=m/z 603.6 (PRODUCT) and 1,2-distearoyl-rac-glycerol (IS)=m/z 607.6. The ratio of Diolein to internal standard (Peak Area Ratio) is utilized to calculate IC50 values.
The exemplified Examples disclosed below were tested in the MGAT2 in vitro assays described above and were found having MGAT2 inhibitory activity. Table 1 below lists human MGAT2 IC50 values measured for the following examples.

human MGAT-2, sequence (Q3SYC2 whole entry): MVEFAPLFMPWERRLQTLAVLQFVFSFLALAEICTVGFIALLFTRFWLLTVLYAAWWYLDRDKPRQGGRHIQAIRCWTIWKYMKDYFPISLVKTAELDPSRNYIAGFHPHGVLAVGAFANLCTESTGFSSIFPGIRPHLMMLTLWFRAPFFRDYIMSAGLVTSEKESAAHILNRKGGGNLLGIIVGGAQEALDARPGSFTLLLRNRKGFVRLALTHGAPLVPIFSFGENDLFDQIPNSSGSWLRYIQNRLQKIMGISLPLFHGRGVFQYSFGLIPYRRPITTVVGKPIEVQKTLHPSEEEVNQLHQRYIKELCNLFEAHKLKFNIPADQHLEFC

| SMILES | IC50 [nM] |
| --- | --- |
| CCn1ccc(C2=C(n3nn[nH]c3=O)C(=O)N[C@@](c3ccc(CCCCC(F)(F)F)cc3F)(C(F)(F)F)C2)n1 [Example 13] | 84 |
| Cc1ccc(C2=C(n3nn[nH]c3=O)C(=O)N[C@@](c3ccc(OCCCC(F)(F)F)cc3)(C(F)(F)F)C2)cc1 [Example 1, (S)-3-(5-Oxo-4,5-dihydro-1H-tetrazol-1-yl)-4-(p-tolyl)-6-(4-(4,4,4-trifluorobutoxy)phenyl)-6-(trifluoromethyl)-5,6-dihydropyridin-2(1H)-one] | 27 |
| CCn1ccc(C2=C(n3nn[nH]c3=O)C(=O)N[C@@](c3ccc(OCCCC(F)(F)F)cc3F)(C(F)(F)F)C2)n1 [Example 9] | 108 |
| O=C1N[C@@](c2ccc(OCCCC(F)(F)F)cc2F)(C(F)(F)F)CC(c2ccn(C3CC3)n2)=C1n1nn[nH]c1=O [Example 7] | 173 |
| CC(C)n1ccc(C2=C(n3nn[nH]c3=O)C(=O)N[C@@](c3ccc(CCCCC(F)(F)F)cc3F)(C(F)(F)F)C2)n1 [Example 10] | 36 |
| O=C1N[C@@](c2ccc(CCCCC(F)(F)F)cc2)(C(F)(F)F)CC(c2ccn(CC3CC3)n2)=C1n1nn[nH]c1=O [Example 20] | 3 |
| O=C1N[C@@](c2cnn(CCCCCCC(F)(F)F)c2)(C(F)(F)F)CC(c2ccc3c(c2)CCCC3)=C1n1nn[nH]c1=O [Example 17] | 5 |
| O=C1N[C@@](c2ccc(OCCCC(F)(F)F)cc2F)(C(F)(F)F)CC(c2ccn(CC3CC3)n2)=C1n1nn[nH]c1=O [Example 14] | 5 |
| CCc1ccc(C2=C(n3nn[nH]c3=O)C(=O)N[C@H](c3ccc(OCCCC(F)(F)F)cc3Cl)C2)s1 [Example 24] | 36 |
| Cc1ccc(C2=C(n3nn[nH]c3=O)C(=O)N[C@@](c3ccc(OCCCCCC(F)(F)F)cc3)(C(F)(F)F)C2)cc1 [Example 2] | 5 |
| COc1ccc(C2=C(n3nn[nH]c3=O)C(=O)N[C@@](c3ccc(OCCCC(F)(F)F)cc3)(C(F)(F)F)C2)cc1 [Example 3] | 340 |
| O=C1N[C@@](c2ccc(OCCCC(F)(F)F)cc2F)(C(F)(F)F)CC(c2ccc(C(F)F)cc2)=C1n1nn[nH]c1=O [Example 21] | 10 |
| CC(C)Cn1ccc(C2=C(n3nn[nH]c3=O)C(=O)N[C@@](c3ccc(CCCCC(F)(F)F)cc3F)(C(F)(F)F)C2)n1 [Example 12] | 34 |
| O=C1N[C@@](c2ccc(CCCCC(F)(F)F)cc2F)(C(F)(F)F)CC(c2ccn(CC3CC3)n2)=C1n1nn[nH]c1=O [Example 11] | 9 |
| CC(C)n1ccc(C2=C(n3nn[nH]c3=O)C(=O)N[C@@](c3ccc(OCCCC(F)(F)F)cc3F)(C(F)(F)F)C2)n1 [Example 6] | 137 |
| O=C1N[C@@](c2ccc(OCCCC(F)(F)F)cc2F)(C(F)(F)F)CC(c2ccn(C3CCC3)n2)=C1n1nn[nH]c1=O [Example 8] | 30 |
| O=C1N[C@@](c2ccc(OCCCCCC(F)(F)F)cc2)(C(F)(F)F)CC(c2ccc(OC(F)F)cc2)=C1n1nn[nH]c1=O [Example 4] | 17 |
| COc1ccc(C2=C(n3nn[nH]c3=O)C(=O)N[C@@](c3ccc(OCCCCCC(F)(F)F)cc3)(C(F)(F)F)C2)cc1 [Example 5] | 71 |
| CC(C)Cn1ccc(C2=C(n3nn[nH]c3=O)C(=O)N[C@@](c3ccc(OCCCC(F)(F)F)cc3F)(C(F)(F)F)C2)n1 [Example 15] | 145 |
| CC(=O)c1ccc(C2=C(n3nn[nH]c3=O)C(=O)N[C@@](c3ccc(OCCCC(F)(F)F)cc3)(C(F)(F)F)C2)s1 [Example 18] | 8 |
| CC(O)c1ccc(C2=C(n3nn[nH]c3=O)C(=O)N[C@@](c3ccc(OCCCC(F)(F)F)cc3)(C(F)(F)F)C2)s1 (stereo partly shown) [Example 19] | 10 |
| CCc1ccc(C2=C(n3nn[nH]c3=O)C(=O)N[C@@](c3ccc(OCCCC(F)(F)F)cc3)(C(F)(F)F)C2)s1 [Example 23] | 60 |
